The source of these data is PubChem BioAssay AID192 (DTP/NCI, 2004).

Values joined by “and” are separate entries in the source; they are usually repeats but may differ in a detail not shown here. Identical values can stand only once. Inconclusive results and toxic doses are left out.

For the assay, the system named is BDF1 mice, B16 melanoma ip, median survival T/C. In words: NCI In Vivo Anticancer Drug Screen. Data for tumor model B16 Melanoma (intraperitoneal) in B6D2F1 (BDF1) mice. The following applies: endpoint: median survival time, higher = longer survival. In a few lines:
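Values are ratios of treated (T) to vehicle-control (C) measurements of survival or tumor size in tumor-bearing mice.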

The mark [1] stands for this setting: dose: 2.5 mg/kg/injection, schedule: Q01DX009 (ip), vehicle: Klucel (hydroxypropylcellulose) (HPC).
The mark [2] stands for this setting: dose: 100.0 mg/kg/injection, schedule: Q01DX009 (ip), vehicle: saline with Tween-80.
Setting [3] is: dose: 200.0 mg/kg/injection, schedule: Q01DX009 (ip), vehicle: saline with Tween-80.
Setting [4] is: dose: 50.0 mg/kg/injection, schedule: Q01DX009 (ip), vehicle: Klucel (hydroxypropylcellulose) (HPC).
Where [5] appears, read: dose: 100.0 mg/kg/injection, schedule: Q01DX009 (ip), vehicle: Klucel (hydroxypropylcellulose) (HPC).
Setting [6] is: dose: 12.5 mg/kg/injection, schedule: Q01DX009 (ip), vehicle: saline with Tween-80.
Where [7] appears, read: dose: 25.0 mg/kg/injection, schedule: Q01DX009 (ip), vehicle: saline with Tween-80.
[8] abbreviates: dose: 50.0 mg/kg/injection, schedule: Q01DX009 (ip), vehicle: saline with Tween-80.

Regarding `CCCS(=O)[O-].CCCS(=O)[O-].[Zn+2]`, the T/C is, setting by setting: (dose: 0.05 mg/kg/injection, schedule: Q01DX009 (ip), vehicle: saline) 106 % of control; (dose: 0.1 mg/kg/injection, schedule: Q01DX009 (ip), vehicle: saline) 91 % of control; (dose: 0.2 mg/kg/injection, schedule: Q01DX009 (ip), vehicle: saline) 103 % of control; (dose: 0.4 mg/kg/injection, schedule: Q01DX009 (ip), vehicle: saline) 101 % of control; (dose: 0.8 mg/kg/injection, schedule: Q01DX009 (ip), vehicle: saline) 96 % of control; (dose: 1.6 mg/kg/injection, schedule: Q01DX009 (ip), vehicle: saline) 100 % of control. The T/C is 95 % of control (dose: 3.2 mg/kg/injection, schedule: Q01DX009 (ip), vehicle: saline); 103 % of control (dose: 6.4 mg/kg/injection, schedule: Q01DX009 (ip), vehicle: saline); 101 % of control (dose: 12.8 mg/kg/injection, schedule: Q01DX009 (ip), vehicle: saline).

`COc1cc2c(cc1OC)C1CNC(=O)C1C(c1ccccc1)C2` (centres undefined): the T/C is 91 % of control under setting [1]; 91 % of control (dose: 3.75 mg/kg/injection, schedule: Q01DX009 (ip), vehicle: Klucel (hydroxypropylcellulose) (HPC)); 98 % of control (dose: 5.0 mg/kg/injection, schedule: Q01DX009 (ip), vehicle: Klucel (hydroxypropylcellulose) (HPC)); 97 % of control (dose: 7.5 mg/kg/injection, schedule: Q01DX009 (ip), vehicle: Klucel (hydroxypropylcellulose) (HPC)); 94 % of control (dose: 10.0 mg/kg/injection, schedule: Q01DX009 (ip), vehicle: Klucel (hydroxypropylcellulose) (HPC)); 92 % of control (dose: 15.0 mg/kg/injection, schedule: Q01DX009 (ip), vehicle: Klucel (hydroxypropylcellulose) (HPC)).

With `Cc1c(Cl)ccc2c(C(O)CBr)cc(-c3ccccc3)nc12` (centres undefined), the T/C is 91 % of control under setting [2] and 87 % of control under setting [3].

Consider `O=C(O)c1cc2oc3ccccc3c2cc1O`, for which the T/C was 116 % of control under setting [4] and 110 % of control under setting [5].

For `O=c1cc(O)c1=O`, the T/C (dose: 0.78 mg/kg/injection, schedule: Q01DX009 (ip), vehicle: saline with Tween-80) was 106 % of control; the T/C (dose: 1.56 mg/kg/injection, schedule: Q01DX009 (ip), vehicle: saline with Tween-80) is 104 % of control; the T/C (dose: 3.13 mg/kg/injection, schedule: Q01DX009 (ip), vehicle: saline with Tween-80) is 110 % of control; the T/C (dose: 6.25 mg/kg/injection, schedule: Q01DX009 (ip), vehicle: saline with Tween-80) is 109 % of control; the T/C under setting [6] is 93 % of control.

`C/C=C/CNc1ccc(C)cc1`: the T/C runs as follows: under setting [7], 102 % of control; under setting [8], 102 % of control; under setting [2], 92 % of control.

As to `O=C(Nc1ccccc1F)Nc1cccc2ccccc12`, the T/C is 100 % of control under setting [5]; 88 % of control (dose: 200.0 mg/kg/injection, schedule: Q01DX009 (ip), vehicle: Klucel (hydroxypropylcellulose) (HPC)); 94 % of control (dose: 400.0 mg/kg/injection, schedule: Q01DX009 (ip), vehicle: Klucel (hydroxypropylcellulose) (HPC)).

For the compound `COc1cc(C(=O)N=Nc2c(O)[nH]c3ccc(Br)cc23)cc(OC)c1OC`, the T/C reads like this: (dose: 25.0 mg/kg/injection, schedule: Q01DX009 (ip), vehicle: Klucel (hydroxypropylcellulose) (HPC)) 98 % of control; under setting [4], 109 % of control; under setting [5], 86 % of control.

On to `COc1ccc(NC(=O)Nc2ccc(Cl)cc2)cc1`, for which the T/C reads like this: (dose: 100.0 mg/kg/injection, schedule: Q04DX003 (ip), vehicle: Klucel (hydroxypropylcellulose) (HPC)) 100 % of control; (dose: 200.0 mg/kg/injection, schedule: Q04DX003 (ip), vehicle: Klucel (hydroxypropylcellulose) (HPC)) 95 % of control; (dose: 400.0 mg/kg/injection, schedule: Q04DX003 (ip), vehicle: Klucel (hydroxypropylcellulose) (HPC)) 90 % of control.

Regarding `O=C(O)CCS(=O)(=O)CCC(=O)O`, the T/C was 102 % of control under setting [8], 100 % of control under setting [2] and 102 % of control under setting [3].

Take `Cc1c2cc[n+](C)c(C)c2cc2c1[nH]c1ccccc12`: the T/C (dose: 10.0 mg/kg/injection, schedule: Q04DX003 (ip), vehicle: water) was 95 % of control; the T/C (dose: 20.0 mg/kg/injection, schedule: Q04DX003 (ip), vehicle: water) is 92 % of control; the T/C (dose: 40.0 mg/kg/injection, schedule: Q04DX003 (ip), vehicle: water) is 94 % of control.

As for `C=C1C(C)C2C(Cc3ccccc3)NC(=O)C23OC(=O)/C=C\CC(=O)CCC(C)C/C=C/C3C1O` (centres undefined), under setting [1], the T/C was 94 % of control.

As for `CC1CC(C)(O)CC(C(O)CC2CC(=O)NC(=O)C2)C1=O` (centres undefined), the T/C was 111 % of control (dose: 0.98 mg/kg/injection, schedule: Q04DX003 (ip), vehicle: saline); 100 % of control (dose: 1.4 mg/kg/injection, schedule: Q04DX003 (ip), vehicle: saline); 91 % of control (dose: 2.0 mg/kg/injection, schedule: Q04DX003 (ip), vehicle: saline); 102 % of control (dose: 2.86 mg/kg/injection, schedule: Q04DX003 (ip), vehicle: saline).

In the case of `COc1ccc(Cl)cc1NC(=O)Nc1ccc(Cl)c(Cl)c1`, the T/C was 96 % of control (dose: 18.75 mg/kg/injection, schedule: Q01DX009 (ip), vehicle: Klucel (hydroxypropylcellulose) (HPC)); 95 % of control (dose: 37.5 mg/kg/injection, schedule: Q01DX009 (ip), vehicle: Klucel (hydroxypropylcellulose) (HPC)); 90 % of control (dose: 75.0 mg/kg/injection, schedule: Q01DX009 (ip), vehicle: Klucel (hydroxypropylcellulose) (HPC)).

With `CCC(=O)N(C)[C@@H](C)C(=O)O[C@H]1CC(=O)N(C)c2cc(cc(OC)c2Cl)C/C(C)=C/C=C[C@@H](OC)[C@@]2(O)C[C@H](OC(=O)N2)[C@@H](C)[C@@H]2O[C@@]12C`, the T/C by setting is: (dose: 2.5 micrograms/kg/injection, schedule: Q01DX009 (ip), vehicle: saline + alcohol) 156 % of control; (dose: 3.8 micrograms/kg/injection, schedule: Q01DX009 (ip), vehicle: saline + alcohol) 171 % of control; (dose: 5.0 micrograms/kg/injection, schedule: Q01DX009 (ip), vehicle: saline + alcohol) 167 % of control and 171 % of control; (dose: 7.5 micrograms/kg/injection, schedule: Q01DX009 (ip), vehicle: saline + alcohol) 191 % of control; (dose: 10.0 micrograms/kg/injection, schedule: Q01DX009 (ip), vehicle: saline + alcohol) 168 % of control and 181 % of control; (dose: 15.0 micrograms/kg/injection, schedule: Q01DX009 (ip), vehicle: saline + alcohol) 151 % of control and 196 % of control. The T/C (dose: 30.0 micrograms/kg/injection, schedule: Q01DX009 (ip), vehicle: saline + alcohol) was 103 % of control.

`O=C(OC1C=CC2CCC1C2)c1ccc([N+](=O)[O-])cc1` (centres undefined): the T/C is, setting by setting: under setting [8], 91 % of control; under setting [2], 96 % of control; under setting [3], 93 % of control.

Take `COc1ccc(/C=C/c2ccc3ccccc3[n+]2C)c(OC)c1OC`: the T/C is, setting by setting: (dose: 2.5 mg/kg/injection, schedule: Q01DX009 (ip), vehicle: saline) 104 % of control; (dose: 5.0 mg/kg/injection, schedule: Q01DX009 (ip), vehicle: saline) 113 % of control.

Turning to `CCCCCCCCSCCO`, the T/C is 102 % of control under setting [6] and 97 % of control under setting [7].

Regarding `C=CCN(CC=C)P(=O)(N1CC1)N1CC1C` (centres undefined), the T/C runs as follows: (dose: 0.36 mg/kg/injection, schedule: Q01DX009 (ip), vehicle: saline) 112 % of control; (dose: 0.5 mg/kg/injection, schedule: Q01DX009 (ip), vehicle: saline) 110 % of control; (dose: 0.83 mg/kg/injection, schedule: Q01DX009 (ip), vehicle: saline) 116 % of control; (dose: 1.25 mg/kg/injection, schedule: Q01DX009 (ip), vehicle: saline) 114 % of control; (dose: 1.8 mg/kg/injection, schedule: Q01DX009 (ip), vehicle: saline) 99 % of control.

Consider `COc1ccc(C[C@H](N)C(=O)NC2C(CO)OC(n3cnc4c(N(C)C)ncnc43)C2O)cc1` (some centres undefined), for which the T/C runs as follows: (dose: 4.0 mg/kg/injection, schedule: Q01DX009 (ip), vehicle: saline) 114 % of control; (dose: 8.0 mg/kg/injection, schedule: Q01DX009 (ip), vehicle: saline) 107 % of control; (dose: 16.0 mg/kg/injection, schedule: Q01DX009 (ip), vehicle: saline) 109 % of control; (dose: 32.0 mg/kg/injection, schedule: Q01DX009 (ip), vehicle: saline) 110 % of control and 114 % of control; (dose: 40.0 mg/kg/injection, schedule: Q01DX009 (ip), vehicle: saline) 108 % of control.
